# Measured values from patent US7531187B2, “Synergistic insecticidal composition containing chloronicotynyle and pyrethroids compounds” (United Phosphorus, Ltd., priority 2004, dated 2009).
# Like-named read-outs stand apart in the source and are kept apart here.
# Legend:
# [1] = test system: Brown plant hoppers and Green plant hoppers; experiment: Treated paddy leaf bioassay, larval mortality, Colby synergism (Examples 13-14); format: in vivo
# Protocol: In this evaluation, Brown plant hoppers and Green plant hoppers are obtained from laboratory colonies. Paddy leaves are immersed in 1:1 v/v, acetone/water solutions of the test compound, or solution of a combination of the test compounds for a period of about 4 seconds. Following immersion, leaves are allowed to air-dry for 2-3 hours. Plastic bioassay trays containing multiple open-faced wells (4.0×4.0×2.5 cm) are used. Cut portions of a treated leaf, a moistened cotton dental wick and a single third-instar larva are placed into each well. These wells are covered with an adhesive vented clear plastic sheet which is held under constant fluorescent light at about 30° C. for a predetermined period of time. Larval mortality/morbidity is evaluated at 5 days after treatment. All treatments are replicated 3-4 fold in a randomized complete block design with 15-30 larvae per treatment. Using conventional log-probit analysis, the LC50 of each treatment is determined.
# Synergism can be calculated by using the Colby's method i.e. the expected (or predicted) response of the combination is calculated by taking the product of the observed response for each individual component of the combination when applied alone divided by 100 and subtracting this value from the sum of observed response for each component when applied alone. Synergism of the combination is then determined by comparing the observed response of the combination to the expected (or predicted) response as calculated from the observed response of each individual component alone. If the observed response of the combination is greater than the expected (or predicted) response, then the combination is said to be synergistic and falls within the definition of synergistic effect. (Colby, S. R., Weeds, 1967(15), p. 20-22)
# [2] = cited from earlier work
# [3] = test system: domestic fowl; conditions: cited from earlier work
# [4] = test system: flies; conditions: cited from earlier work
# [5] = test system: rats; conditions: cited from earlier work
# [6] = cited from earlier work; for pH of optimum stability: more stable in acid than in alkaline media
# [7] = cited from earlier work; remark: listed apart in the source
# [8] = test system: rats; conditions: cited from earlier work; remark: listed apart in the source
# [9] = test system: rabbits; conditions: cited from earlier work
# [10] = test system: rats; conditions: cited from earlier work; remark: listed apart in the source
# [11] = in vivo; cited from earlier work
# [12] = test system: mice; conditions: cited from earlier work
# [13] = test system: Japanese quail; conditions: cis/trans ratio of 40:60; cited from earlier work
# [14] = test system: cockroaches and other crawling insets; conditions: 100 mg a.i. (as WP)/m^2; cited from earlier work
# [15] = test system: chicken; conditions: cis/trans ratio of 40:60; cited from earlier work
compound,measurement,setting,value
"CC1(C)C(C=C(Cl)Cl)C1C(=O)OC(C#N)c1cccc(Oc2ccccc2)c1 (racemic) [Cypermethrin, (RS)-α-cyano-3-phenoxybenzyl (1RS, 3RS; IRS, 3SR)-3-(2,2-dichlorovinyl)-2,2-dimethyl cyclopropane carboxylate]",Observed Mortality %,"[1]; Table 2, Cypermethrin 80 ppm alone",52.5%
same,Observed Mortality %,"[1]; Table 2, Cypermethrin 85 ppm alone",60%
same,Observed Mortality %,"[1]; Table 2, Cypermethrin 90 ppm alone",70%
same,Observed Mortality %,"[1]; Table 3, Cypermethrin 80 ppm alone",60.0%
same,Observed Mortality %,"[1]; Table 3, Cypermethrin 85 ppm alone",65%
same,Observed Mortality %,"[1]; Table 3, Cypermethrin 90 ppm alone",72.0%
"CC(C)[C@@H](C(=O)O[C@@H](C#N)c1cccc(Oc2ccccc2)c1)c1ccc(Cl)cc1 (racemic) [Fenvalerate, (RS)-α-cyano-3-phenoxybenzyl (RS)-2-(4-chlorophenyl)-3-methylbutyrate]","Solubility in acetone, chloroform, cyclohexanone, ethanol, xylene",[2]; 23° C.,> 1 kg/kg
same,Solubility in hexane,[2]; 23° C.,155 g/kg
same,acute oral LD50,[3],> 1600 mg/kg
same,duration of control of flies in cattle sheds,[4]; 110 mg/aquare meter wall,60 days
same,acute oral LD50,[5]; rats,451 mg/kg
same,pH of optimum stability,[6],4
same,solubility in water,[7]; 20° C.,< 1 mg/L
same,Acute percutaneous LD50,[8]; rats,> 5000 mg/kg
"O=[N+]([O-])NC1=NCCN1Cc1ccc(Cl)nc1 [Imidacloprid, 1-(6-chloro-3-pyridylmethyl)-N-nitroimidazolidin-2-yldeneamine]",Observed Mortality %,"[1]; Table 2, Imidacloprid 24 ppm alone, 5 days after treatment",55.00%
same,Observed Mortality %,"[1]; Table 2, Imidacloprid 27 ppm alone",69.25%
same,Observed Mortality %,"[1]; Table 2, Imidacloprid 30 ppm alone",72.10%
same,solubility in n.hexane,[2]; 20° C.,< 0.1 g/L
same,irritation to skin and eyes,"[9]; rabbit, in vivo",Non irritating
same,inhalation LC50 (4 h),"[10]; female rats, aerosol",> 5323 mg/m^3 air
same,skin sensitisation,[11],Not a skin sensitiser
same,stability to hydrolysis,[6]; pH 5,Stable
same,Acute percutaneous LD50 (24 h),"[8]; rats, 24 h",> 5000 mg/kg
"CC1(C)C(C=C(Cl)Cl)C1C(=O)OCc1cccc(Oc2ccccc2)c1 (stereo not drawn) [Permethrin, 3-phenoxybenzyl(1RS,3 RS; 1 RS, 3SR)-3-(2,2-dichlorovinyl)-2,2-dimethylcyclopropanecarboxylate]",Solubility in Xylene,[2]; 25° C.,≥ 1 kg/kg
same,Solubility in hexane,[2]; 25° C.,> 1 kg/kg
same,Solubility in methanol,[2]; 25° C.,258 g/kg
same,Typical oral LD50,"[12]; mice, cis/trans ratio of 40:60",540 to 2690 mg/kg
same,duration of residual control of biting flies in animal housing,[4]; 200 mg a.i. (as EC)/square meter wall or 30 mg a.i. (as WP)/m^2 wall,< 60 days
same,Typical oral LD50,[13],> 13500 mg/kg
same,Typical oral LD50,"[5]; rats, cis/trans ratio of 40:60",430 to 4000 mg/kg
same,duration of control of cockroaches and other crawling insets,[14],> 120 days
same,stability to heat,[6]; 50° C.,≥ 2 years
same,"photochemical stability, in words",[6]; laboratory studies,Some photochemical degradation
same,pH of optimum stability,[6],4
same,Typical oral LD50,[15],> 300 mg/kg
(E)-N′-[(6-chloro-3-pyridyl)methyl]-N-cyano-N-methylacetamidine [Acetamiprid],Observed Mortality %,"[1]; Table 3, Acetamiprid 24 ppm alone",47.30%
same,Observed Mortality %,"[1]; Table 3, Acetamiprid 27 ppm alone",69.25%
same,Observed Mortality %,"[1]; Table 3, Acetamiprid 30 ppm alone",72.1%
same,"solubility in organic solvents, in words","[2]; acetone, methanol, ethanol, dichloromethane, chloroform, acetonitrile and tetrahydrofuron",Soluble
same,irritation to skin and eyes,[9]; rabbits,Non irritating
same,acute oral LD50,[12]; female mice,184 mg/kg
same,acute oral LD50,[12]; male mice,198 mg/kg
same,inhalation LC50 (4 h),[10]; male and female rats,> 0.29 mg/L
same,acute oral LD50,[5]; female rats,146 mg/kg
same,acute oral LD50,[5]; male rats,217 mg/kg
same,stability in buffered solutions,"[6]; pH 4,5,7",Stable
same,stability in buffered solutions,[6]; pH 9 and 45° C.,Degraded slowly
same,stability under sunlight,[6]; sunlight,Stable
same,solubility in water,[7]; 25° C.,4200 mg/L
same,Acute percutaneous LD50,[8]; male and female rats,> 2000 mg/kg
